Source: patent US8722723B2, “Aromatic amide derivative” (Research Foundation Itsuu Laboratory, priority 2008, dated 2014)
Each block holds one molecule with its values, some of them ahead of it.

Columns and labels:
luciferase (Luc) = test: Reporter assay: Hela cells transfected with human RORα1 expression vector and luciferase (Luc) reporter vector; Luc activity corrected with β-Gal activity; format: cell-based, firefly; design: key: β-Gal-corrected Luc activity; smaller = inhibition, larger = promotion; settings: human RORα1 expression vector, rev-DR2/TK-Luc reporter, about 1 day, smaller number = inhibitory, larger = promoting
Experimental: The reporter assay was used, in which Hela cells transfected with each of a pcDNA3 vector incorporated with the human RORα1 so that the gene can be expressed in animal cells as an expression vector, and a pGL3 promoter vector of which SV40 promoter was replaced with TK promoter as a luciferase expression reporter vector were used.
The Hela cells were placed at a density of 2×10^4 cells/0.1 mL/well on a 96-well cell culture plate (FALCON) by using 10% FBS-DMEM. On the next day, the human RORα1 expression vector, the reporter vector incorporated with 3 copies of rev-DR2 sequences and the HSV thymidine kinase promoter at a position upstream from the luciferase (Luc) gene, and a β-galactosidase (β-Gal) expression vector for control were introduced into the cells by using a transfection reagent (Fugene6, Roche). On the next day, the medium was replaced with 5% FBS-DMEM containing a test compound diluted at a prescribed concentration, after about 1 day, the cell supernatant was removed, then the cells were lysed (Passive Lysis buffer, Promega), the Luc substrate (PicaGene, Toyo Ink) was added to a part of the lysed cells, and the activity of produced Luc was measured as luminescence intensity. Further, the β-Gal activity was measured as intensity of fluorescence generated when 4-methylumbelliferyl β-D-galactoside was added as a substrate, and the activity of Luc corrected for the transfection efficiency with the β-Gal activity was used as the index for evaluation. A smaller number indicates inhibitory action, and a larger number indicates promoting action.

melting point: 160 to 161 °C
SMILES: CCCc1ccc(N2Cc3cc(N(C)C)ccc3C2=O)cc1 [Compound 1, 5-dimethylamino-2-(4-propyl-phenyl)-isoindol-1-one]

melting point: 133 to 134 °C
SMILES: CCCCc1ccc(N2Cc3cc(N(C)C)ccc3C2=O)cc1 [Compound 3, 5-dimethylamino-2-(4-n-butyl-phenyl)-isoindol-1-one]

melting point: 167 to 169 °C
SMILES: CC(C)c1ccc(N2Cc3cc(N(C)C)ccc3C2=O)cc1 [Compound 5, 5-dimethylamino-2-(4-isopropyl-phenyl)-isoindol-1-one]

melting point: 169 to 170 °C
SMILES: CC(C)c1ccc(N2Cc3ccc(N(C)C)cc3C2=O)cc1 [Compound 6, 6-dimethylamino-2-(4-isopropyl-phenyl)-isoindol-1-one]

melting point: 101 to 102 °C
SMILES: CCCCCCCc1ccc(N2Cc3ccc(N(C)C)cc3C2=O)cc1 [Compound 8, 6-dimethylamino-2-(4-n-heptyl-phenyl)-isoindol-1-one]

melting point: 128 to 129 °C
SMILES: CCCCCCCCc1ccc(N2Cc3cc(N(C)C)ccc3C2=O)cc1 [Compound 9, 5-dimethylamino-2-(4-n-octyl-phenyl)-isoindol-1-one]

SMILES: CN(C)c1ccc2c(c1)CN(c1ccc(C3CCCCC3)cc1)C2=O [Compound 11, 5-dimethylamino-2-(4-cyclohexyl-phenyl)-isoindol-1-one]
activity of Luc corrected for the transfection efficiency with the β-Gal activity (luciferase (Luc); test compound 1 μM): 2.1
activity of Luc corrected for the transfection efficiency with the β-Gal activity (luciferase (Luc); test compound 10 μM): 2.6

melting point: 58 to 60 °C
SMILES: CN(C)c1cccc2c1C(=O)N(c1ccccc1)C2 [Compound 13, 7-dimethylamino-2-phenyl-2,3-dihydro-isoindol-1-one]

melting point: 116 to 117 °C
SMILES: CCOC(=O)CCCc1ccc(N2Cc3cc(N(C)C)ccc3C2=O)cc1 [Compound 15, 4-[4-(5-dimethylamino-1-oxo-1,3-dihydro-isoindol-2-yl)-phenyl]-butyric acid ethyl ester]

melting point: 179 to 180 °C
SMILES: CN(C)c1ccc2c(c1)CN(c1ccc(CCCC(=O)O)cc1)C2=O [Compound 16, 4-[4-(5-dimethylamino-1-oxo-1,3-dihydro-isoindol-2-yl)-phenyl]-butyric acid]

SMILES: CCOC(=O)CCCc1ccc(N2Cc3ccc(N(C)C)cc3C2=O)cc1 [Compound 17, 4-[4-(6-dimethylamino-1-oxo-1,3-dihydro-isoindol-2-yl)-phenyl]-butyric acid ethyl ester]
activity of Luc corrected for the transfection efficiency with the β-Gal activity (luciferase (Luc); test compound 0.01 μM): 0.2
activity of Luc corrected for the transfection efficiency with the β-Gal activity (luciferase (Luc); test compound 0.1 μM): 0
activity of Luc corrected for the transfection efficiency with the β-Gal activity (luciferase (Luc); test compound 1 μM): 0
activity of Luc corrected for the transfection efficiency with the β-Gal activity (luciferase (Luc); test compound 10 μM): 0.0

melting point: 94 to 96 °C
SMILES: CCOC(=O)CCCc1ccc(N2Cc3ccccc3C2=O)cc1 [Compound 19, 4-[4-(1-oxo-1,3-dihydro-isoindol-2-yl)-phenyl]-butyric acid ethyl ester]

melting point: 128 to 129 °C
SMILES: O=C(O)CCCc1ccc(N2Cc3ccccc3C2=O)cc1 [Compound 20, 4-[4-(1-oxo-1,3-dihydro-isoindol-2-yl)-phenyl]-butyric acid]

SMILES: O=C(O)C=Cc1ccc(N2Cc3ccccc3C2=O)cc1 [Compound 24, 3-[4-(1-oxo-1,3-dihydro-isoindol-2-yl)-phenyl]-acrylic acid]
activity of Luc corrected for the transfection efficiency with the β-Gal activity (luciferase (Luc); test compound 0.01 μM): 0.9
activity of Luc corrected for the transfection efficiency with the β-Gal activity (luciferase (Luc); test compound 0.1 μM): 0.7
activity of Luc corrected for the transfection efficiency with the β-Gal activity (luciferase (Luc); test compound 1 μM): 0.5
activity of Luc corrected for the transfection efficiency with the β-Gal activity (luciferase (Luc); test compound 10 μM): 0.4

SMILES: CN(C)c1ccc2c(c1)C(=O)N(c1ccc(CCCC(=O)OC(C)(C)C)cc1)C2 [Compound 31, 4-[4-(6-dimethylamino-1-oxo-1,3-dihydro-isoindol-2-yl)-phenyl]-butyric acid tert-butyl ester]
activity of Luc corrected for the transfection efficiency with the β-Gal activity (luciferase (Luc); test compound 0.01 μM): 0.8
activity of Luc corrected for the transfection efficiency with the β-Gal activity (luciferase (Luc); test compound 0.1 μM): 0.4
activity of Luc corrected for the transfection efficiency with the β-Gal activity (luciferase (Luc); test compound 1 μM): 0.1
activity of Luc corrected for the transfection efficiency with the β-Gal activity (luciferase (Luc); test compound 10 μM): 0.0
